Columns and labels:
Assay in all cases: scanMAX Kinase assay panel
Type in all cases: binding
Details in all cases: read-out: % control
[1] = molecular target: AKT1 (Homo sapiens (Human), UniProt P31749)
In short: (§1)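 The % control figures are compound readings scaled so that DMSO-treated wells correspond to 100% and the positive control corresponds to 0%. They were obtained on the scanMAX kinase panel.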

[2] = molecular target: BMPR2 (Homo sapiens (Human), UniProt Q13873)
In short: as §1

[3] = molecular target: BRAF(V600E) (Homo sapiens (Human), UniProt P15056, V600E)
In short: as §1

[4] = molecular target: CAMK4 (Homo sapiens (Human), UniProt Q16566)
In short: as §1

[5] = molecular target: CAMKK2 (Homo sapiens (Human), UniProt Q96RR4)
In short: as §1

[6] = molecular target: CDK3 (Homo sapiens (Human), UniProt Q00526)
In short: as §1

[7] = molecular target: DAPK3 (Homo sapiens (Human), UniProt O43293)
In short: as §1

[8] = molecular target: DMPK2 (Homo sapiens (Human), UniProt Q6DT37)
In short: as §1

[9] = molecular target: EGFR(T790M) (Homo sapiens (Human), UniProt P00533, T790M)
In short: as §1

[10] = molecular target: EPHA4 (Homo sapiens (Human), UniProt P54764)
In short: as §1

[11] = molecular target: GRK2 (Homo sapiens (Human), UniProt P25098)
In short: as §1

[12] = molecular target: IKK-beta (Homo sapiens (Human), UniProt O14920)
In short: as §1

[13] = molecular target: IRAK4 (Homo sapiens (Human), UniProt Q9NWZ3)
In short: as §1

[14] = molecular target: MAP4K2 (Homo sapiens (Human), UniProt Q12851)
In short: as §1

[15] = molecular target: MKNK1 (Homo sapiens (Human), UniProt Q9BUB5)
In short: as §1

[16] = molecular target: MRCKA (Homo sapiens (Human), UniProt Q5VT25)
In short: as §1

[17] = molecular target: NEK7 (Homo sapiens (Human), UniProt Q8TDX7)
In short: as §1

[18] = molecular target: PIK3CA(M1043I) (Homo sapiens (Human), UniProt P42336, M1043I)
In short: as §1

[19] = molecular target: PIK3CD (Homo sapiens (Human), UniProt O00329)
In short: as §1

[20] = molecular target: PRKG2 (Homo sapiens (Human), UniProt Q13237)
In short: as §1

[21] = molecular target: PRKX (Homo sapiens (Human), UniProt P51817)
In short: as §1

[22] = molecular target: S6K1 (Homo sapiens (Human), UniProt P23443)
In short: as §1

[23] = molecular target: SRPK2 (Homo sapiens (Human), UniProt P78362)
In short: as §1

[24] = molecular target: TRKC (Homo sapiens (Human), UniProt Q16288)
In short: as §1

[25] = molecular target: TXK (Homo sapiens (Human), UniProt P42681)
In short: as §1

[26] = molecular target: ULK3 (Homo sapiens (Human), UniProt Q6PHR2)
In short: as §1

[27] = molecular target: YES (Homo sapiens (Human), UniProt P07947)
In short: as §1

[28] = molecular target: YSK1 (Homo sapiens (Human), UniProt O00506)
In short: as §1

[29] = molecular target: CDC2L5 (Homo sapiens (Human), UniProt Q14004)
Method: (§2) Particularly, the compounds of Examples 18 and 57 were selected among all of those compounds of the present invention. DiscoverX Co. was asked to measure the enzyme (kinase) selectivity, and the experiment was performed using scanMAX™ Kinase assay panel.
(§3) At this time, the concentration of the drug treated to each enzyme was 1 uM in DMSO and the control percentage (% control) was determined by the following Equation 1. (Example Compound−Positive Control)/(Negative Control−Positive Control)×100 [Equation 1]
(§4) Herein, the positive control indicates the compound showing the % control of 0%, and the negative control indicates DMSO showing the % control of 100%. The enzyme selectivity in the present invention is defined as follows: When the % control for each enzyme is less than 35% (<35%), it is judged that the compound has the activity to the corresponding enzyme.

[30] = molecular target: PFCDPK1(P. falciparum) (Plasmodium falciparum (isolate 3D7), UniProt P62344)
Method: as §2, §3, §4

[31] = molecular target: PFPK5(P. falciparum) (Plasmodium falciparum (isolate 3D7), UniProt P61075)
Method: as §2, §3, §4

[32] = molecular target: PKNB(M. tuberculosis) (Mycobacterium tuberculosis (strain ATCC 25618 / H37Rv), UniProt P9WI81)
Method: as §2, §3, §4

[33] = molecular target: PRP4 (Homo sapiens (Human), UniProt Q13523)
Method: as §2, §3, §4

Chain of BMPR2 (Q13873 27-1038): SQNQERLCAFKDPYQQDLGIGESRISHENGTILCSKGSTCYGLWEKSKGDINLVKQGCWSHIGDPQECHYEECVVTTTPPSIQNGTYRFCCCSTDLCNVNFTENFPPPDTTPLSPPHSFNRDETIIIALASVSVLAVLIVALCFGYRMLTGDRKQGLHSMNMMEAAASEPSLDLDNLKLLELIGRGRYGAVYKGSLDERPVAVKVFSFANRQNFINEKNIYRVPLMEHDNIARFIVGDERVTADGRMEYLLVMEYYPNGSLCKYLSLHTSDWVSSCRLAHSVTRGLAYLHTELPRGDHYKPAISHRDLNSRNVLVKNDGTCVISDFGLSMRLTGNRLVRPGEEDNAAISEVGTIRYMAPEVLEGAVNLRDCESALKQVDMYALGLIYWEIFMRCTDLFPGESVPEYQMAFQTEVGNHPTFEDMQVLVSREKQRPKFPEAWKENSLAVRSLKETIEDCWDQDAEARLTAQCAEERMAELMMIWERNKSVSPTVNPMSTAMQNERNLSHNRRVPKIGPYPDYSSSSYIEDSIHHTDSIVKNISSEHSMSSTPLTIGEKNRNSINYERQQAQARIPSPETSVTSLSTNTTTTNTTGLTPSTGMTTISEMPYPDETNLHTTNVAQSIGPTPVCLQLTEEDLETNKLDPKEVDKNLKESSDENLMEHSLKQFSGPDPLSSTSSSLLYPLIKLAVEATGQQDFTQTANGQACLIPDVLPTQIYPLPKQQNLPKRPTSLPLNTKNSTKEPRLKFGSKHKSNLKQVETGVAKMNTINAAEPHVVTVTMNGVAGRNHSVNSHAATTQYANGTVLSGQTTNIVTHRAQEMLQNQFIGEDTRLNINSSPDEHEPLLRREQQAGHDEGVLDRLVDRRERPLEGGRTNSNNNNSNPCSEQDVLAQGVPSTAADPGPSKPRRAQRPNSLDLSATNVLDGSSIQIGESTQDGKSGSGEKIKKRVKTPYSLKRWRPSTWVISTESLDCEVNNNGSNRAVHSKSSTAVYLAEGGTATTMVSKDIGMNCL
Chain of IRAK4 (Q9NWZ3 whole entry): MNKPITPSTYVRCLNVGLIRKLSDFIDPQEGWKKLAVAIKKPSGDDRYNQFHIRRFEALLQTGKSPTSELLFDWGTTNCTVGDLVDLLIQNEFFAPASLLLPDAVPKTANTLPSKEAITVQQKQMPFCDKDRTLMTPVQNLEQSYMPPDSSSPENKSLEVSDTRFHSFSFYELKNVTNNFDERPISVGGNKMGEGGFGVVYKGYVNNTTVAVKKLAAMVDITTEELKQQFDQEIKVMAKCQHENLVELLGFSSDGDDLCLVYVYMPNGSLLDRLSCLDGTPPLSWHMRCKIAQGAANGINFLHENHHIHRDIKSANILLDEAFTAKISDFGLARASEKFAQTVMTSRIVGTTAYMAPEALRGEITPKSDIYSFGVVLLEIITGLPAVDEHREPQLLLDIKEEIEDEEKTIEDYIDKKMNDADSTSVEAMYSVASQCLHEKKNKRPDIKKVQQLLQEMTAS
Chain of IKK-beta (O14920 whole entry): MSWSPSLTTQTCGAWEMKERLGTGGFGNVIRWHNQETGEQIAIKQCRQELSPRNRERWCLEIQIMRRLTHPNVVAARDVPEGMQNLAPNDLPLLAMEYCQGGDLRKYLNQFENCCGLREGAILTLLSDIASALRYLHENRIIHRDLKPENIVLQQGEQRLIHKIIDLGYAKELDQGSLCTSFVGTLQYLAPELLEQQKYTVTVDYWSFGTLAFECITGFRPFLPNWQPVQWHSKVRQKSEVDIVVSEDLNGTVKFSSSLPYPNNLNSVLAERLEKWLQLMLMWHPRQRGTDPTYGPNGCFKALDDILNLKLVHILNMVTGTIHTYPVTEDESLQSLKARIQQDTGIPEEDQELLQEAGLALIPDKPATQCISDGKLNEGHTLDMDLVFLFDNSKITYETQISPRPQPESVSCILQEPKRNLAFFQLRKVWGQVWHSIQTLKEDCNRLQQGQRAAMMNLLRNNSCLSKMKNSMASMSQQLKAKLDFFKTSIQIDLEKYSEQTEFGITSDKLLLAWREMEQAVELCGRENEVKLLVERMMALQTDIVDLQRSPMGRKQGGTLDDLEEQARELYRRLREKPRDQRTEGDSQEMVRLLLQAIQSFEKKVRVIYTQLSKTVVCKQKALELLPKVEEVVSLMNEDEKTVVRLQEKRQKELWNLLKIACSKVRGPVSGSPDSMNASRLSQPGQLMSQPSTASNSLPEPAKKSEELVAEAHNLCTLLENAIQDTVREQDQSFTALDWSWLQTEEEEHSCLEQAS
Chain of PRP4 (Q13523 whole entry, looked up): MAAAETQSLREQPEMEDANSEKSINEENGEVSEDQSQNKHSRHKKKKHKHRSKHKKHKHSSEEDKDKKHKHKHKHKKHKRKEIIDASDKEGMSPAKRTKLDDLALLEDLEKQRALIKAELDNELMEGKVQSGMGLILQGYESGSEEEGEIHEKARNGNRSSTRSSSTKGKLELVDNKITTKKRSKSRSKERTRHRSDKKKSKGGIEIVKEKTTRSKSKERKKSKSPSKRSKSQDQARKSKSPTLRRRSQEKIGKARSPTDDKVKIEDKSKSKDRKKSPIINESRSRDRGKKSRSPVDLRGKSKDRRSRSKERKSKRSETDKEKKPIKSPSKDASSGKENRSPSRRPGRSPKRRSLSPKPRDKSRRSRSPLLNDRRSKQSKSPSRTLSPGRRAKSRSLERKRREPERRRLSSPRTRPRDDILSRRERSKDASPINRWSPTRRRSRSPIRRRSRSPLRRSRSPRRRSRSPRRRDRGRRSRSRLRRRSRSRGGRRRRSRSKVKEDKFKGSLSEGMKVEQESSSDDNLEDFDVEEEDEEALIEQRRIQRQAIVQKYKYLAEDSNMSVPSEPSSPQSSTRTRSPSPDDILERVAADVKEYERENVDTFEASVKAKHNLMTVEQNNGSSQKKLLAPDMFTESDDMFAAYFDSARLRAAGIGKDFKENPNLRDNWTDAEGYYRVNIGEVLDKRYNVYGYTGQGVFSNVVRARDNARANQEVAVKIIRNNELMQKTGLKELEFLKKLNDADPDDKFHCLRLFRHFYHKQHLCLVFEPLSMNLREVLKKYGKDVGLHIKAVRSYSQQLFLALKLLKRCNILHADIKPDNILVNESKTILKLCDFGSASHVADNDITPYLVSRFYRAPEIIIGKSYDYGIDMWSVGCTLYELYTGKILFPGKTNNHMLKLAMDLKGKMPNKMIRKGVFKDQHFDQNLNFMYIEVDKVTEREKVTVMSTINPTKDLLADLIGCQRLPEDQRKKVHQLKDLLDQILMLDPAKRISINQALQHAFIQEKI
Chain of EGFR(T790M) (P00533 25-1210 T790M): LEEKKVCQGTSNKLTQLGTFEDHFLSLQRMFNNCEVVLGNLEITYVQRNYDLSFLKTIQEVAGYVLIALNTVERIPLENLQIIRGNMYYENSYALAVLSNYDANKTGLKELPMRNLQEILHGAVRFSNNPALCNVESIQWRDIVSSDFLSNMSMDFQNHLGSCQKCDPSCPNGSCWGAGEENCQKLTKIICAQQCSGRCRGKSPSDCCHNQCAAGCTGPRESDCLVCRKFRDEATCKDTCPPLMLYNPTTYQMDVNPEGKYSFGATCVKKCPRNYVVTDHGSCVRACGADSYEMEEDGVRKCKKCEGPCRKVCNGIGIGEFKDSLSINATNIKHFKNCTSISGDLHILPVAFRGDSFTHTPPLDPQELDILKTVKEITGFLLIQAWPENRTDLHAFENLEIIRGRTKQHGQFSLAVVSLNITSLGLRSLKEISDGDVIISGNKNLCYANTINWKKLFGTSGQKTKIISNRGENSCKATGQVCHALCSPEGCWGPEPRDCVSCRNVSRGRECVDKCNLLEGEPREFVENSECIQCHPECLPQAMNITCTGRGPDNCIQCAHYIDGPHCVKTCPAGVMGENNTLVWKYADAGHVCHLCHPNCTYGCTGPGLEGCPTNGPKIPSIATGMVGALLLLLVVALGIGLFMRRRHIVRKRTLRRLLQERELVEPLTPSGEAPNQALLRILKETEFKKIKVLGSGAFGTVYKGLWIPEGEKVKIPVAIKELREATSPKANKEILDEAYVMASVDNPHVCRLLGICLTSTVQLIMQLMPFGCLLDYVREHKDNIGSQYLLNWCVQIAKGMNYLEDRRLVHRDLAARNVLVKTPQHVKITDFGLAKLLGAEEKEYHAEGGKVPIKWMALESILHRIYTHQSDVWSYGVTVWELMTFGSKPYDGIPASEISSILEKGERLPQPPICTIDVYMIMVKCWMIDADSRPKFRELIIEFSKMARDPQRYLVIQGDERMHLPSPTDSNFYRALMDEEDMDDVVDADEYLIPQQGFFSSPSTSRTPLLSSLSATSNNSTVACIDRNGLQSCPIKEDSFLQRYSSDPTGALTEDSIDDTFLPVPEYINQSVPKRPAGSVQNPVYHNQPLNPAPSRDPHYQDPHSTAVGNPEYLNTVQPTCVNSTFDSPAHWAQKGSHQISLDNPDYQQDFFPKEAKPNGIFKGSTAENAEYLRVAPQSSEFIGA
Chain of YSK1 (O00506 whole entry): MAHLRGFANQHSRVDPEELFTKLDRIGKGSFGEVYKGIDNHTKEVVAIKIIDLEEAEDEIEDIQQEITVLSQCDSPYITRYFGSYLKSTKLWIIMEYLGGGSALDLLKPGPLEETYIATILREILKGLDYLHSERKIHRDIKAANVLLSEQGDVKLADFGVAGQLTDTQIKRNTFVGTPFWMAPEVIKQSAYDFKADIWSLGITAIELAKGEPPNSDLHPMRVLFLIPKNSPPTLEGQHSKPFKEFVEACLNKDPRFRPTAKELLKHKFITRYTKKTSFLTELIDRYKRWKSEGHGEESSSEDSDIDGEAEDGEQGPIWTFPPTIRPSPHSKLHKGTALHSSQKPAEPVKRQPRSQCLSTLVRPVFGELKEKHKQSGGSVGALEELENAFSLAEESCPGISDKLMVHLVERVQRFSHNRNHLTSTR

Compound	remaining binding at 1 µM [1] [%]	remaining binding at 1 µM [2] [%]	remaining binding at 1 µM [3] [%]	remaining binding at 1 µM [4] [%]	remaining binding at 1 µM [5] [%]	remaining binding at 1 µM [6] [%]	remaining binding at 1 µM [7] [%]	remaining binding at 1 µM [8] [%]	remaining binding at 1 µM [9] [%]	remaining binding at 1 µM [10] [%]	remaining binding at 1 µM [11] [%]	remaining binding at 1 µM [12] [%]	remaining binding at 1 µM [13] [%]	remaining binding at 1 µM [14] [%]	remaining binding at 1 µM [15] [%]	remaining binding at 1 µM [16] [%]	remaining binding at 1 µM [17] [%]	remaining binding at 1 µM [18] [%]	remaining binding at 1 µM [19] [%]	remaining binding at 1 µM [20] [%]	also measured
CCNc1cc(Nc2ccc(C(=O)N3CCC(N4CCOCC4)CC3)cc2OC)nc2[nH]cc(C(F)(F)F)c12 [Example 57, (4-((4-(ethylamino)-3-(trifluoromethyl)-1H-pyrrolo[2,3-b]pyridin-6-yl)amino)-3-methoxyphenyl) (4-morpholinopiperidin-1-yl)methanone]	97	84	94	88	49	94	86	96	88	94	95	100	100	100	100	95	85	99	100	85	remaining binding at 1 µM [21]: 80%; remaining binding at 1 µM [22]: 100%; remaining binding at 1 µM [23]: 100%; remaining binding at 1 µM [24]: 100%; remaining binding at 1 µM [25]: 85%; remaining binding at 1 µM [26]: 83%; remaining binding at 1 µM [27]: 83%; remaining binding at 1 µM [28]: 73%; remaining binding at 1 µM [29]: 92%; remaining binding at 1 µM [30]: 98%; remaining binding at 1 µM [31]: 98%; remaining binding at 1 µM [32]: 100%; remaining binding at 1 µM [33]: 91%
CCNc1cc(Nc2ccc(C(=O)N3CCC(N4CCOCC4)CC3)cc2OC)nc2[nH]cc(C#N)c12 [Example 18, 4-(ethylamino)-6-((2-methoxy-4-(4-morpholinopiperidine-1-carbonyl)phenyl)amino)-1H-pyrrolo[2,3-b]pyridine-3-carbonitrile]	100	44	87	76	52	97	14	85	100	98	71	77	99	61	93	100	89	100	100	58	remaining binding at 1 µM [21]: 92%; remaining binding at 1 µM [22]: 70%; remaining binding at 1 µM [23]: 100%; remaining binding at 1 µM [24]: 93%; remaining binding at 1 µM [25]: 99%; remaining binding at 1 µM [26]: 95%; remaining binding at 1 µM [27]: 90%; remaining binding at 1 µM [28]: 99%; remaining binding at 1 µM [29]: 100%; remaining binding at 1 µM [30]: 72%; remaining binding at 1 µM [31]: 98%; remaining binding at 1 µM [32]: 82%; remaining binding at 1 µM [33]: 100%
